The term EC50 denotes the concentration giving half of the maximal effect.

GST-RIPK1 (recombinant GST-RIPK1 kinase domain (residues 1-327)), sequence (Q13546 1-327): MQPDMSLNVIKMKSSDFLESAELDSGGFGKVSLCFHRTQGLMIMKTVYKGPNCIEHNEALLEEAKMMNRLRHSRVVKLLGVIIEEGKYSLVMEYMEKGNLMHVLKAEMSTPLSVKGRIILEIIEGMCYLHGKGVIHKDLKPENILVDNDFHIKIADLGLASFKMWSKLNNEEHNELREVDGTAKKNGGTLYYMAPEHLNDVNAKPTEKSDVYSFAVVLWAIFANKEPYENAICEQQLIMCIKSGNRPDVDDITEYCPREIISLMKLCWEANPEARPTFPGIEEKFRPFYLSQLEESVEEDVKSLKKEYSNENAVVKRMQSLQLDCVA

This test deals with GST-RIPK1 (recombinant GST-RIPK1 kinase domain (residues 1-327)) (Homo sapiens (Human), UniProt Q13546). The experiment in a line: RIPK1-ADP-Glo Enzymatic Assay. The note with it: 25 nM GST-RIPK1, 300 μM ATP, 3 μM dephosphorylated-MBP, 30 min pre-incubation, 150 min reaction. It counts as biochemical. As for the experimental part:
The enzymatic activity of RIPK1 is measured using an assay derived from ADP-Glo kit (TMPromega), which provides a luminescent-based ADP detection system. Specifically, the ADP generated by RIPK1 kinase is proportionally detected as luminescent signals in a homogenous fashion. In this context, the assessment of the inhibitory effect of small molecules (EC50) is measured by the effectiveness of the compounds to inhibit the ATP to ADP conversion by RIPK1.
In this assay, the potency (EC50) of each compound was determined from a ten-point (1:3 serial dilution; top compound concentration of 100000 nM) titration curve using the following outlined procedure. To each well of a white ProxiPlus 384 well-plate, 30 nL of compound (1% DMSO in final assay volume of 3 μL) was dispensed, followed by the addition of 2 μL of 1× assay buffer (25 mM Hepes 7.3, 20 mM MgCl2, 50 mM NaCl, 1 mM DTT, 0.005% Tween20, and 0.02% BSA) containing 37.5 nM of GST-RIPK1 (recombinant GST-RIPK1 kinase domain (residues 1-327) enzyme produced from baculovirus-transfected Sf21 cells: MW 62 kDa). Plates were placed in an ambient temperature humidified chamber for a 30 min pre-incubation with compound. Subsequently, each reaction was initiated by the addition of 1 μL 1× assay buffer containing 900 μM ATP and 3 μM dephosphorylated-MBP substrate. The final reaction in each well of 3 μL consists of 25 nM of GST-RIPK1, 300 μM ATP, and 3 μM dephosphorylated-MBP. Kinase reactions were allowed to proceed for 150 min prior to adding ADP-Glo reagents per Promega's outlined kit protocol. Dose-response curves were generated by plotting percent effect (% product conversion; Y-axis) vs. Log 10 compound concentrations (X-axis). EC50 values were calculated using a non-linear regression, four-parameters sigmoidal dose-response model.
A general note: ADP-Glo turns the ADP formed in a reaction into a luminescent signal.
For the compound `N#CC12CC(n3nc4n(c3=O)[C@H](c3ccc(F)c(F)c3)CC4)(C1)C2` [Compound 1-44, (S)-3-(5-(3,4-difluorophenyl)-3-oxo-6,7-dihydro-3H-pyrrolo[2,1-c][1,2,4]triazol-2(5H)-yl)bicyclo[1.1.1]pentane-1-carbonitrile], the EC50 turned out to be 67.7 nM.

As to `O=c1n(C23CC(c4ccccc4)(C2)C3)nc2n1[C@H](c1cc(F)cc(F)c1)CC2` [Compound 1-12, (5S)-5-(3,5-difluorophenyl)-2-(3-phenylbicyclo[1.1.1]pentan-1-yl)-2,5,6,7-tetrahydro-3H-pyrrolo[2,1-c][1,2,4]triazol-3-one], the EC50 amounted to 49.1 nM.

On to `O=c1n(C23CC(F)(C2)C3)nc2n1[C@H](c1cc(F)cc(F)c1)CCC2` [Compound 1-58, (S)-5-(3,5-difluorophenyl)-2-(3-fluorobicyclo[1.1.1]pentan-1-yl)-5,6,7,8-tetrahydro-[1,2,4]triazolo[4,3-a]pyridin-3(2H)-one], for which the EC50 was determined as 45.9 nM.

For `O=c1n(C23CC(F)(C2)C3)nc2n1[C@H](c1ccccc1)CC2F` (single isomer, unassigned) [Compound 6-4, (5S)-7-(S or R)-fluoro-2-(3-fluorobicyclo[1.1.1]pentan-1-yl)-5-phenyl-2,5,6,7-tetrahydro-3H-pyrrolo[2,1-c][1,2,4]triazol-3-one], the EC50 was 21.9 nM.

For the compound `COC(=O)C12CC(n3nc4n(c3=O)[C@H](c3cc(F)cc(F)c3)CC4)(C1)C2(F)F` [Compound 1-36, methyl 3-[(5S)-5-(3,5-difluorophenyl)-3-oxo-6,7-dihydro-3H-pyrrolo[2,1-c][1,2,4]triazol-2(5H)-yl]-2,2-difluorobicyclo[1.1.1]pentane-1-carboxylate], the EC50 worked out at 61.9 nM.

Take `COC(=O)C12CC(n3nc4n(c3=O)[C@H](c3ccccc3)CC4)(C1)C2` [Compound 1-19, methyl 3-[(5S)-3-oxo-5-phenyl-6,7-dihydro-3H-pyrrolo[2,1-c][1,2,4]triazol-2(5H)-yl]bicyclo[1.1.1]pentane-1-carboxylate]: the EC50 was found to be 289 nM.

For `N#CC12CC(n3nc4n(c3=O)[C@H](c3ccccc3)CC4)(C1)C2` [Compound 1-17, 3-[(5S)-3-oxo-5-phenyl-6,7-dihydro-3H-pyrrolo[2,1-c][1,2,4]triazol-2(5H)-yl]bicyclo[1.1.1]pentane-1-carbonitrile], the concentration giving a half-maximal response (EC50) amounted to 36.9 nM.

In the case of `N#CC12CCC(n3nc4n(c3=O)[C@H](c3ccccc3)CC4)(CC1)C2` [Compound 1-30, 4-[(5S)-3-oxo-5-phenyl-6,7-dihydro-3H-pyrrolo[2,1-c][1,2,4]triazol-2(5H)-yl]bicyclo[2.2.1]heptane-1-carbonitrile], the EC50 was 87.4 nM.

As to `COc1cc(F)cc(C2CCc3nn(C45CC(F)(C4)C5)c(=O)n32)c1` (racemic) [Compound 4-2, (±)-5-(3-fluoro-5-methoxyphenyl)-2-(3-fluorobicyclo[1.1.1]pentan-1-yl)-2,5,6,7-tetrahydro-3H-pyrrolo[2,1-c][1,2,4]triazol-3-one], the EC50 was found to be 259 nM.

Take `O=c1n(C23CC(F)(C2)C3)nc2n1[C@H](c1cncc(F)c1)CC2` [Compound 1-10, (5S)-2-(3-fluorobicyclo[1.1.1]pentan-1-yl)-5-(5-fluoropyridin-3-yl)-2,5,6,7-tetrahydro-3H-pyrrolo[2,1-c][1,2,4]triazol-3-one]: the EC50 stood at 272 nM.

As to `O=c1n(C23CC(F)(C2)C3)nc2n1[C@H](c1cc(F)cc(F)c1)CC2F` (single isomer, unassigned) [Compound 6-1, (5S)-5-(3,5-difluorophenyl)-7-(S or R)-fluoro-2-(3-fluorobicyclo[1.1.1]pentan-1-yl)-2,5,6,7-tetrahydro-3H-pyrrolo[2,1-c][1,2,4]triazol-3-one], the EC50 was 116 nM.

As for `O=c1n(C23CC(C(F)F)(C2)C3)nc2n1[C@H](c1cc(F)cc(F)c1)CC2` [Compound 1-28, (5S)-2-[3-(difluoromethyl)bicyclo[1.1.1]pentan-1-yl]-5-(3,5-difluorophenyl)-2,5,6,7-tetrahydro-3H-pyrrolo[2,1-c][1,2,4]triazol-3-one], the EC50 came out at 25.9 nM.

Consider `N#CC12CC(n3nc4n(c3=O)[C@H](c3ccc(C(F)(F)F)cc3)CC4)(C1)C2` [Compound 1-50, (S)-3-(3-oxo-5-(4-(trifluoromethyl)phenyl)-6,7-dihydro-3H-pyrrolo[2,1-c][1,2,4]triazol-2(5H)-yl)bicyclo[1.1.1]pentane-1-carbonitrile], for which the EC50 stood at 250 nM.

Turning to `O=c1n(C23CC(Cl)(C2)C3)nc2n1[C@H](c1cc(F)cc(F)c1)CC2` [Compound 1-8, (5S)-2-(3-chlorobicyclo[1.1.1]pentan-1-yl)-5-(3,5-difluorophenyl)-2,5,6,7-tetrahydro-3H-pyrrolo[2,1-c][1,2,4]triazol-3-one], the EC50 turned out to be 21.8 nM.

Consider `N#CC12CC(n3nc4n(c3=O)[C@H](c3ccccc3)CC4)(C1)C2(F)F` [Compound 3-3, 2,2-difluoro-3-[(5S)-3-oxo-5-phenyl-6,7-dihydro-3H-pyrrolo[2,1-c][1,2,4]triazol-2(5H)-yl]bicyclo[1.1.1]pentane-1-carbonitrile], for which the EC50 worked out at 45 nM.

Take `O=c1n(C23CC(Cl)(C2)C3)nc2n1[C@H](c1ccc(F)cn1)CC2` [Compound 1-71, (S)-2-(3-chlorobicyclo[1.1.1]pentan-1-yl)-5-(5-fluoropyridin-2-yl)-2,5,6,7-tetrahydro-3H-pyrrolo[2,1-c][1,2,4]triazol-3-one]: the EC50 was 162 nM.

`O=c1n(C23CC(F)(C2)C3)nc2n1[C@H](c1cc(F)cc(F)c1)CC2` [Compound 1-2, (5S)-5-(3,5-difluorophenyl)-2-(3-fluorobicyclo[1.1.1]pentan-1-yl)-2,5,6,7-tetrahydro-3H-pyrrolo[2,1-c][1,2,4]triazol-3-one]: the EC50 amounted to 22.8 nM.

On to `O=c1n(C23CC(F)(C2)C3)nc2n1[C@H](c1ccc(C(F)F)cc1)CC2` [Compound 4-10, (S)-5-(4-(difluoromethyl)phenyl)-2-(3-fluorobicyclo[1.1.1]pentan-1-yl)-2,5,6,7-tetrahydro-3H-pyrrolo[2,1-c][1,2,4]triazol-3-one], for which the EC50 is 62.9 nM.

Turning to `N#CC12CCC(n3nc4n(c3=O)[C@H](c3cc(F)cc(F)c3)CC4)(CC1)C2` [Compound 1-29, 4-[(5S)-5-(3,5-difluorophenyl)-3-oxo-6,7-dihydro-3H-pyrrolo[2,1-c][1,2,4]triazol-2(5H)-yl]bicyclo[2.2.1]heptane-1-carbonitrile], the EC50 came out at 68 nM.

As to `N#CC12CC(n3nc4n(c3=O)[C@H](c3cc(F)cc(F)c3)CC4)(C1)C2(F)F` [Compound 3-1, 3-[(5S)-5-(3,5-difluorophenyl)-3-oxo-6,7-dihydro-3H-pyrrolo[2,1-c][1,2,4]triazol-2(5H)-yl]-2,2-difluorobicyclo[1.1.1]pentane-1-carbonitrile], the 50% effective concentration (EC50) came to 20 nM.

Consider `O=c1n(C23CC(F)(C2)C3)nc2n1[C@H](c1cc(F)c(F)c(F)c1)CC2` [Compound 1-76, (S)-2-(3-fluorobicyclo[1.1.1]pentan-1-yl)-5-(3,4,5-trifluorophenyl)-2,5,6,7-tetrahydro-3H-pyrrolo[2,1-c][1,2,4]triazol-3-one], for which the EC50 was 27.5 nM.

As for `Cc1c(F)cc([C@@H]2CCc3nn(C45CC(C#N)(C4)C5)c(=O)n32)cc1F` [Compound 1-51, (S)-3-(5-(3,5-difluoro-4-methylphenyl)-3-oxo-6,7-dihydro-3H-pyrrolo[2,1-c][1,2,4]triazol-2(5H)-yl)bicyclo[1.1.1]pentane-1-carbonitrile], the EC50 stood at 16.1 nM.

On to `N#CC12CC(n3nc4n(c3=O)[C@H](c3cc(F)cc(F)c3)CCC4)(C1)C2` [Compound 1-53, (S)-3-(5-(3,5-difluorophenyl)-3-oxo-5,6,7,8-tetrahydro-[1,2,4]triazolo[4,3-a]pyridin-2(3H)-yl)bicyclo[1.1.1]pentane-1-carbonitrile], for which the EC50 amounted to 109 nM.

`N#CC12CC(n3nc4n(c3=O)[C@H](c3cccc(F)c3)CC4)(C1)C2` [Compound 1-24, (S)-3-(5-(3-fluorophenyl)-3-oxo-6,7-dihydro-3H-pyrrolo[2,1-c][1,2,4]triazol-2(5H)-yl)bicyclo[1.1.1]pentane-1-caronitrile]: the EC50 came out at 29.7 nM.

For `O=c1n(C23CC(F)(C2)C3)nc2n1[C@H](c1cc(F)c(O)c(F)c1)CC2` [Compound 1-73, (S)-5-(3,5-difluoro-4-hydroxyphenyl)-2-(3-fluorobicyclo[1.1.1]pentan-1-yl)-2,5,6,7-tetrahydro-3H-pyrrolo[2,1-c][1,2,4]triazol-3-one], the EC50 amounted to 28.2 nM.

Consider `O=c1n(C23CC(F)(C2)C3)nc2n1[C@H](c1ccc(Cl)c(F)c1)CC2` [Compound 1-75, (S)-5-(4-chloro-3-fluorophenyl)-2-(3-fluorobicyclo[1.1.1]pentan-1-yl)-2,5,6,7-tetrahydro-3H-pyrrolo[2,1-c][1,2,4]triazol-3-one], for which the EC50 is 17.1 nM.
